Several values for one entry are separate records, joined by “and”; a condition that tells them apart may be missing. Identical values can stand only once.
How the values were obtained:
Assay type in all cases: cell-based, influenza virus A/PR/8/34
[1] = system: PA-mutant H41A influenza virus polymerase
[2] = system: PA-mutant L42T influenza virus polymerase
[3] = system: PA-mutant G81T influenza virus polymerase
[4] = system: PA-mutant R84L influenza virus polymerase
[5] = system: PA-mutant I120T influenza virus polymerase
[6] = system: PA-mutant V122T influenza virus polymerase
[7] = system: PA-mutant R124Q influenza virus polymerase
[8] = system: PA-mutant K137L influenza virus polymerase
[9] = system: PA-mutant T20A influenza virus polymerase
[10] = system: PA-I38T mutant influenza virus polymerase

Compound | Fold increase in EC50 compared to wild-type [1] | Fold increase in EC50 compared to wild-type [2] | Fold increase in EC50 compared to wild-type [3] | Fold increase in EC50 compared to wild-type [4] | Fold increase in EC50 compared to wild-type [5] | Fold increase in EC50 compared to wild-type [6] | Fold increase in EC50 compared to wild-type [7] | Fold increase in EC50 compared to wild-type [8] | Fold increase in EC50 compared to wild-type [9] | Fold increase in EC50 compared to wild-type [10]
O=C1c2c(ccc(O)c2O)CN1Cc1ccc(O)cc1 [Compound 17, 2-(4-hydroxybenzyl)-6,7-dihydroxy-isoindolin-1-one] | 4.9 fold | 2.5 fold | 6.1 fold | 4 fold and 3.8 fold | 6.1 fold | 4.2 fold | 5.0 fold | 4.5 fold | – | –
NC(=O)c1ncn([C@@H]2O[C@H](CO)[C@@H](O)[C@H]2O)n1 [Ribavirin, ribavirin] | 0.8 fold | 0.9 fold | 0.9 fold | 1.1 fold | 1.0 fold | 1.2 fold | 1.1 fold | 1.3 fold | 1.0 fold | –
baloxavir acid [BXA] | 0.2 fold | 1.1 fold | 0.2 fold | 0.2 fold | 0.7 fold | 0.7 fold | 0.5 fold | – | 0.3 fold | 65 fold
